Experiment: Human HepG2 cell viability assay in 384 well format
Format: toxicity, cell-based
Parameters: dose 125 nL, time 70.5 hour; cytotoxicity at 70.5 h: concentration not given beside the values
Conditions: HepG2 cells, read-out: Inhibition

Compound | cytotoxicity at 70.5 h [%]
Cc1oncc1C(=O)N1CCC2(CC1)C(c1cnn(C)c1)CC(=O)N2C (centres undefined) | -9.68
CN1CCCCC1c1ncc2c(n1)CCN(Cc1ccccc1Cl)C2 (centres undefined) | -7.2
CCN(CC)CCCNC(=O)Nc1c(C)cccc1C(C)C | -4.07
Cc1ccc(-c2ccc(C3CNCCO3)nc2)cc1 (centres undefined) | -2.39
NC(=O)CN1CCC(Nc2ccnc3ccc(Cl)cc23)CC1 | -1.05
CN(C)S(=O)(=O)N1C[C@H]2CCC[C@@]2(COc2cccnc2)C1 | -5.8
CC(C)N(CCNC(=O)c1n[nH]c2ccccc12)C(C)C | -7.32
COc1c(CNCc2ccc(S(C)(=O)=O)cc2)c(C)nn1C | 0.0381
O=S(=O)(NCCCn1cncn1)c1ccc2c(c1)OCCCO2 | -6.28
CC(O)CN1CCN(C(=O)c2ccn(-c3ccc(F)cc3)n2)CC1 (centres undefined) | -3.45
COc1ccc(CN2C[C@@H]3CCCO[C@@H]3[C@H](NC(=O)CC3CC3)C2)cc1 | 3.18
O=C(c1ccc(F)cc1F)N1CC[C@H](O)[C@@H](N2CCOCC2)CC1 | -13.9
CN1C(=O)CCC12CCCN(Cc1nccs1)C2 (centres undefined) | 23.1
CN(C)C[C@@H]1C[C@@H]2CN(Cc3nccn3C)CC[C@@H]2N1CC1CC1 | -0.157
O=C1CC(N(C(=O)c2ccc(F)c(F)c2)C2CC2)C(=O)N1 (centres undefined) | -9.51
CSc1nc(N)cc(N2C[C@@H]3CC[C@H](C2)N(Cc2cscn2)C3=O)n1 | 7.64
Cn1cccc1C(CNC(=O)c1ccc(F)cc1F)N1CCCCCC1 (centres undefined) | 34.1
CCC(O)CN1CCN(C(=O)c2sccc2OC)CC1 (centres undefined) | 0.647
Cc1cc(C(=O)N2CCC(CCC(=O)NCCN(C)C)CC2)ccc1O | 24.4
COCc1ccc(C(=O)N2CCC(Oc3ccccc3OC)CC2)s1 | -15
O=c1cc(CN2CCCC2)nc2n1CCCN(CC1CCOCC1)C2 | -13.6
CCn1ncc2c1CCCC2NCc1cccc2c1OCCO2 (centres undefined) | -13.8
CN1CCC[C@H]1c1nc(-c2cncnc2N)no1 | -7.81

Compound | cytotoxicity at 70.5 h [%]
Cc1ccc(N2CC[C@H]3O[C@@H](C(=O)NCc4ccco4)CC[C@H]32)nn1 | -4.81
Cc1nn(C)c(C)c1NC(=O)CNc1ccc(F)c(C(F)(F)F)c1 | -2.51
CCCc1cc(NCCn2cccn2)n2ncnc2n1 | -6.07
O=C(NCC(O)(c1ccco1)C1CC1)c1c(F)cccc1Cl (centres undefined) | -0.808
CC(C)(C)c1cccc(OCC(=O)NS(=O)(=O)c2cccnc2)c1 | 21.7
Cn1nc2c(c1NC(=O)c1cccs1)CCC2 | -12.2
Cc1nc(CN2CCOCC3(CCN(c4cccnc4)CC3)C2)cs1 | 2.23
Cc1ccccc1CSc1nc(N)cc(N2CCC(CC(N)=O)CC2)n1 | -3.38
CC(C)CCN(C)C(=O)c1cc(CN2CCC(O)CC2)on1 | -0.516
CN(c1cccnc1N1CCCC1)S(=O)(=O)c1cnn(C)c1 | 5.43
CCC1CN(C(=O)c2ccccc2N2CCOCC2)CCN1C(C)C (centres undefined) | -1.59
Cc1c[nH]c(C2CN(Cc3ccccc3C(=O)O)CCO2)n1 (centres undefined) | -1.83
Cc1cc(Br)ccc1C(=O)NCCN1CCCCCC1 | -10.6
O=C(NCCNc1ccc(C(F)(F)F)cn1)c1ccc(Cl)cc1F | 1.38
CC(C)C(C)(C#N)NC(=O)Cn1cc(Cl)cn1 (centres undefined) | -6.35
CC(C)NC(=O)c1cc(-c2ccc(S(C)(=O)=O)cc2)nc2c1cnn2C | -13.7
Cc1cnn(C2CCCN(C(=O)CCCOc3ccccc3F)C2)c1 (centres undefined) | -5.78
CCc1nc(CN(C)CC(=O)N(C)C2CC2)cs1 | -12.2
COC(=O)c1ccc(CN2CCN(Cc3nc(C)no3)CC2)s1 | -7.55
CC(NC(=O)NCc1cccs1)c1ccc2c(c1)CCC(=O)N2 (centres undefined) | -4.6
CCC(CO)N(Cc1ccccn1)C(=O)c1ccc(=O)[nH]c1 (centres undefined) | -4.96
O=C(NCCc1noc(-c2ccccn2)n1)NCC1CCCC1 | -4.99
COCCN1CCCC(c2cncc(Oc3ccccc3OC)n2)C1 (centres undefined) | -3.1

Compound | cytotoxicity at 70.5 h [%]
CNc1nc(CNC(=O)Nc2cccc(C(C)OC)c2)cs1 (centres undefined) | -4.31
Cn1cc(C2COC3(CCN(C(=O)Cc4ccccc4)CC3)C2)cn1 (centres undefined) | -8.09
C=C(C)CN1CCN(Cc2nccn2C)C(C)C1 (centres undefined) | 30.2
OC1(Cn2ccc3ncccc32)CCN(Cc2cccnc2)CC1 | -2.24
CSCCC(=O)NCc1cc2n(n1)CCN(C(=O)N(C)C)C2 | -8.07
O=C1CC(CNc2cncc(Br)c2)c2ccccc2N1 (centres undefined) | 3.03
CNc1ncc(CN(C)C(=O)[C@@]23CNC[C@@H]2CN(C(=O)C2CC2)C3)cn1 | -7.16
Cc1nc(-c2nnc[nH]2)sc1C(=O)N1CCCC1c1ccsc1 (centres undefined) | -5.22
CCCc1nc(C)cc(NC(C)Cc2cnccn2)n1 (centres undefined) | -10.8
COc1ccc(O[C@H]2COCCN(Cc3c[nH]c4ccccc34)C2)cc1 | 1.44
N#CC1COCCN1C(=O)c1cccc2cc[nH]c12 (centres undefined) | -13.5
CN(C)CCn1ccnc1C1CCN(C(=O)CCc2cccnc2)CC1 | -4.1
O=C(O)CCCc1ccc2c(c1)CC(=O)N2 | -9.78
CC(C)CC(NCc1ccsc1)c1ccccn1 (centres undefined) | 22.4
CC[C@H]1CN(C(=O)c2cccnc2)CC[C@H]1CC(=O)NC1CC1 | -4.36
CCC(C)(C)NCc1nc(C(C)(C)NC(=O)OC(C)(C)C)no1 | -10.2
O=C(c1ccccc1Cl)N1CC[C@H](O)[C@@H](N2CCOCC2)CC1 | -4.63
Cc1ccc(CN2CC3(CCN(C(=O)c4cscn4)C3)C2)s1 | -7.12
O=C(COCC1CC1)Nc1cc(-c2ccc(Br)s2)n[nH]1 | -5.77
O=C1NC2(CCN(Cc3ccsc3)CC2)CC1c1ccncc1 (centres undefined) | -9.73
Cc1cc(C)nc(N2CCN(C(=O)c3ccc(C4CCCO4)s3)CC2)n1 (centres undefined) | -11.5
CCN1CCN(C2CCN(Cc3nnc(C4CC4)o3)CC2)C1=O | 12.8
CC(NC(=O)NC1CCN(Cc2ccccc2)CC1)c1nncn1C (centres undefined) | 2.2

Compound | cytotoxicity at 70.5 h [%]
CN(C)c1ncccc1CNC(=O)NCc1cccs1 | 1.41
N#Cc1ccc(N2CCN(c3ncccn3)CC2)c(C(F)(F)F)c1 | 8.58
CS(=O)(=O)N1CCO[C@@H]2CN(C(=O)Cc3cccs3)CC[C@@H]2C1 | -9.17
NC(=O)[C@@H]1CCCN1C(=O)c1cn(C/C=C/c2ccccc2)nn1 | -14
CN(CCCNC(=O)CN1CCS(=O)(=O)CC1)c1ccccc1 | -6.59
Nc1nccnc1C(=O)N(Cc1ccccc1O)CC1CCCO1 (centres undefined) | -13.9
CCC(C(=O)Nc1ccc(-c2nc(C)n[nH]2)cc1)N1CCCC1=O (centres undefined) | -9.81
COCCn1cc(NCc2c[nH]nc2-c2ccc(OC)cc2)cn1 | -5.02
CCc1nc(CCNC(=O)C2CC2)sc1C | -1.22
CSc1ccc(NC(=O)NCC(O)C2CC2)cc1F (centres undefined) | 7.73
Cc1csc(N2CCCN(CCC(=O)NC(N)=O)CC2)n1 | -1.42
CCOc1ccc(Cl)c(C(=O)N2CCCN(CC(N)=O)CC2)n1 | -12
Cc1csc([C@@H]2C[C@H]3CN(c4ncc(F)cn4)C[C@H]3O2)n1 | -2.24
Cc1csc(N2CCCN(Cc3noc(C)n3)CC2)n1 | -1.5
Cc1nn(C)cc1Cn1cc(Cl)c(N)n1 | -1.77
O=C(N1CCCC1)N1CCC2(CC1)C(=O)N(CC1CC1)c1ccccc12 | -20.3
CC(C)Cc1noc(CN2CCN(C(=O)c3ccco3)CC2)n1 | -9.38
Cc1cnc(C(=O)N2CCCn3c(nc(CN(C)C)cc3=O)C2)cn1 | 9.93
O=S(=O)(C/C=C/c1ccccc1)Cc1nc(C2CC2)no1 | -11.4
NC(=O)c1cccnc1N1CCN(c2ncnc3c2CCNC3)CC1 | -1.91
O=C(N[C@@H]1CN(c2ncccn2)[C@@H]2CCCO[C@@H]21)c1cnccn1 | -1.73
CCCc1cc(NC2CCN(Cc3ccccn3)CC2)n2nccc2n1 | -4.87
O=C(Nc1ccc2c(c1)OCO2)N1CCN(CCn2cccn2)CC1 | -11.3

Compound | cytotoxicity at 70.5 h [%]
CC(C)c1cc(Br)ccc1NC(=O)NCC(O)CO (centres undefined) | -3.27
CC(=O)N1CCN(Cc2ccc(Cl)c(F)c2)CC(O)C1 (centres undefined) | 17.8
Cc1ncnc(NC(CC(C)(C)C)c2cccnc2)c1C (centres undefined) | -2.93
COc1c(CNC(c2ccccc2)c2ccc(F)cc2)c(C)nn1C (centres undefined) | 24
CSC1(CNC(=O)NC(C)Cc2cccc(F)c2)CCOCC1 (centres undefined) | 0.72
CC(c1cc(F)ccc1F)N1CCN(Cc2nccn2C)CC1 (centres undefined) | 2.5
CC(C)NC(=O)CN(C)C1CCN(c2ccc(Cl)cn2)CC1 | -7
COC(=O)c1ccc(Cn2cnc(C#N)n2)cc1 | -12
O=c1ccn(Cc2nc(-c3ccccc3F)cs2)c(=O)[nH]1 | 0.45
CC(C)(C)NC(=O)N1CCC(NC(=O)Cc2cccnc2)CC1 | -3.09
COc1cccc2ccc(CN3CCN(c4ncccc4C)CC3)nc12 | -7.71
Cc1nc(CN2CCO[C@H]3[C@@H](Oc4ccccn4)CC[C@@H]32)cs1 | 18.6
CC(C)(C(=O)NCC1CC1)c1ccccc1F | -4.02
Cc1cc(C)n(CC2CN(c3nnc(C)c(C)c3C#N)CCO2)n1 (centres undefined) | -3.24
Cc1noc(C2CCCN2C(=O)C2CCC2)n1 (centres undefined) | -11.5
CN(C(=O)Nc1cccnc1)C1CCN(c2ccc(Cl)cc2)CC1 | 0.04
Cn1ccnc1S(=O)(=O)C(C(=O)N1CCCCC1)c1ccccc1 (centres undefined) | 23.2
Cc1ccc(F)c(N2CCCC(NS(=O)(=O)CCCF)C2=O)c1 (centres undefined) | -11.4
N#Cc1ccc(CN2CCN(C(=O)C3CCC3)[C@@H]3CS(=O)(=O)C[C@@H]32)cc1 | -6.79
CCN(CC)C1COc2c(cc(Br)c(C)c2Br)C1=O (centres undefined) | -7.72
O=C(c1ncoc1C1CC1)N1CCCN(CCCc2ccccc2)CC1 | -10.2
COCCC(=O)N1CCC(c2cc3ncc(C)nc3[nH]2)CC1 | -14.7

— ChEMBL document CHEMBL3507680, “University of Dundee, Gates Library screen for HepG2 cell viability”
